Test results published in patent US12157713B2, “Conjugated oligoelectrolytes as antimicrobial agents” (Nanyang Technological University, priority 2018, dated 2024).
pIC50: −log10 of the molar value.

Assays:
[1] = test system: Staphylococcus aureus 25923; experiment: MIC against S. aureus 25923; type: cell-based
Experimental: The respective minimum inhibition concentration (MIC) of each COE molecule was determined using a broth microdilution method. Briefly, COEs were diluted via a 2-fold dilution series in 100 μL of either Muller Hinton Broth (MHB) for E. coli and S. aureus or Brain Heart Infusion Broth (BHI) for E. faecalis in a 96-well plate to achieve the desired final concentration. Subsequently, each well was inoculated with 100 μL of 1×10^6 colony forming units (CFU) mL^−1 of the respective microorganism in MHB for E. coli or BHI for E. faecalis to achieve an inoculum density of 5×10^5 CFU mL^−1. The plates were then incubated at 37° C. with shaking (200 rpm) for 18 hrs. […] The results were obtained in triplicate.
The antimicrobial effects of COE-D62N and COE-D82N were also tested on the Gram-positive Staphylococcus aureus 25923 and Methicillin-resistant Staphylococcus aureus(MRSA BAA-40), in comparison with vancomycin (FIG. 5b).

human erythrocytes = experiment: Haemolysis assay; type: cell-based
Experimental: 1 mL of mammalian blood, collected from a healthy donor, was mixed with 9 mL of PBS and centrifuged at 1,000 rpm for 5 min. Red blood cell pellet was collected and subsequently washed with PBS three times and diluted to a final concentration of 5% v/v. The various COEs were dissolved in PBS and two folds serial diluted in a 96-well microplate. 50 μL of red blood cell stock was mixed with 50 μL of COE solution in each well and incubated for 1 hr at 37° C. under shaking. The microplate was centrifuged at 1,000 rpm for 10 min. 80 μL aliquots of the supernatant were then transferred to a new 96-well microplate and diluted with another 80 μL of PBS. Haemolytic activity was calculated by measuring absorbance at 540 nm using a 96-well plate spectrophotometer. Triton X-100 (0.1% in PBS), which is able to lyse red blood cells, completely was used as positive control, while PBS was used as negative control. The haemolysis percentage was calculated using the following formula:
[formula] where Op is the absorbance of the COE-treated sample, Ob is the absorbance of negative control and Ot is the absorbance of positive control. Results and Discussions
The selectivity of COEs towards bacteria or mammalian cells can be quantified using the ratio between the concentrations leading to 50% lysis of human erythrocytes (HC50) and the MIC value.

HepG2 cells = experiment: Toxicity on HepG2 cells; type: cell-based; conditions: Homo sapiens
[2] = Intrinsic hepatic clearance in mice; type: in vitro ADME
[3] = Intrinsic clearance in human; type: in vitro ADME

SMILES: CN(C)CC[N+](C)(C)CCCCCCOc1ccc(/C=C/c2ccc(OCCCCCC[N+](C)(C)CCN(C)C)cc2)cc1 [COE-D62N]
- MIC [1]: 1 µg/mL
- Toxicity towards erythrocytes (human erythrocytes): non-toxic
- pIC50 (HepG2 cells): < 4.52
- intrinsic hepatic clearance in mice [2]: good
- intrinsic clearance in human [3]: good
